# Source: patent US9738600B2, “ROR gamma (RORγ) modulators” (LEAD PHARMA CEL MODELS IP B.V., priority 2013, dated 2017)
# Target: T1, RORγ (Homo sapiens, UniProt P51449)
# T1 sequence (P51449 269-508 limits assumed): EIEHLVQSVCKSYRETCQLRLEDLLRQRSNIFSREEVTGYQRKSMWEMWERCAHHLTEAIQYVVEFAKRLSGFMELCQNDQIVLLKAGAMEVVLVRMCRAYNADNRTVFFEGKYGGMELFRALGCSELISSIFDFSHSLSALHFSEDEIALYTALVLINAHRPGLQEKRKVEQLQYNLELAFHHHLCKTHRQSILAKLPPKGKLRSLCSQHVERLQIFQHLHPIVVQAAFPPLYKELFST
# Assay: RORγ GAL4 reporter gene assay
# Conditions: mean pIC50, inhibition of RORγ (GAL4-RORγ-LBD) in 293FT cells, luciferase readout, overnight incubation
row,IC50 [nM],Structure (SMILES)
1,≤ 10,"CC(C)(C)CC(O)(c1ccc(NC(=O)Cc2ccc(S(=O)(=O)CC3CC3)cc2)cc1)C(F)(F)F (centres unmarked) [Example 82, 2-(4-((cyclopropylmethyl)sulfonyl)phenyl)-N-(4-(1,1,1-trifluoro-2-hydroxy-4,4-dimethylpentan-2-yl)phenyl)acetamide]"
2,≤ 100,"O=C(Cc1ccc(S(=O)(=O)CC2CC2)cc1)Nc1ccc(C(OCc2ccccc2)(C(F)(F)F)C(F)(F)F)cc1 [Example 59, N-(4-(2-(benzyloxy)-1,1,1,3,3,3-hexafluoropropan-2-yl)phenyl)-2-(4-((cyclopropylmethyl)sulfonyl)phenyl)acetamide]"
3,≤ 1000,"O=C(Cc1ccc(S(=O)(=O)NC2CC2)cc1)Nc1ccc(C(O)(CC2CCCC2)C(F)(F)F)cc1 (centres unmarked) [Example 99, N-(4-(3-cyclopentyl-1,1,1-trifluoro-2-hydroxypropan-2-yl)phenyl)-2-(4-(N-cyclopropylsulfamoyl)phenyl)acetamide]"
4,≤ 100,"CCOC(c1ccc(NC(=O)Cc2ccc(S(=O)(=O)CC3CC3)cc2)cc1)(C(F)(F)F)C(F)(F)F [Example 53, 2-(4-((cyclopropylmethyl)sulfonyl)phenyl)-N-(4-(2-ethoxy-1,1,1,3,3,3-hexafluoropropan-2-yl)phenyl)acetamide]"
5,≤ 1000,"CCS(=O)(=O)c1ccc(CC(=O)Nc2ccc(C(OCc3ccccc3)(C(F)(F)F)C(F)(F)F)cc2)cc1 [Example 50, N-(4-(2-(benzyloxy)-1,1,1,3,3,3-hexafluoropropan-2-yl)phenyl)-2-(4-(ethylsulfonyl)phenyl)acetamide]"
6,≤ 100,"O=C(Cc1ccc(S(=O)(=O)CC2CC2)cc1)Nc1ccc(C(O)(CC2CCCCC2)C(F)(F)F)cc1 (centres unmarked) [Example 69, N-(4-(3-cyclohexyl-1,1,1-trifluoro-2-hydroxypropan-2-yl)phenyl)-2-(4-((cyclopropylmethyl)sulfonyl)phenyl)acetamide]"
7,≤ 100,"O=C(Cc1ccc(S(=O)(=O)CC2CC2)cc1)Nc1ccc(C(O)(CC2CCCC2)C(F)(F)F)cc1 (centres unmarked) [Example 68, N-(4-(3-cyclopentyl-1,1,1-trifluoro-2-hydroxypropan-2-yl)phenyl)-2-(4-((cyclopropylmethyl)sulfonyl)phenyl)acetamide]"
8,≤ 100,"CCS(=O)(=O)c1ccc(CC(=O)Nc2ccc(C(O)(C(F)(F)F)C(F)(F)F)c(C)c2)cc1 [Example 29, 2-(4-(ethylsulfonyl)phenyl)-N-(4-(1,1,1,3,3,3-hexafluoro-2-hydroxypropan-2-yl)-3-methylphenyl)acetamide]"
9,≤ 100,"CCCOC(c1ccc(NC(=O)Cc2ccc(S(=O)(=O)CC)cc2)cc1)(C(F)(F)F)C(F)(F)F [Example 49, 2-(4-(ethylsulfonyl)phenyl)-N-(4-(1,1,1,3,3,3-hexafluoro-2-propoxypropan-2-yl)phenyl)acetamide]"
10,≤ 1000,"CCS(=O)(=O)c1ccc(C(C)C(=O)Nc2ccc(C(O)(C(F)(F)F)C(F)(F)F)cc2)cc1 (centres unmarked) [Example 5, 2-(4-(ethylsulfonyl)phenyl)-N-(4-(1,1,1,3,3,3-hexafluoro-2-hydroxypropan-2-yl)phenyl)propanamide]"
11,≤ 1000,"Cc1cc(C(O)(C(F)(F)F)C(F)(F)F)ccc1NC(=O)Cc1ccc(S(=O)(=O)NC2CC2)cc1 [Example 34, 2-(4-(N-cyclopropylsulfamoyl)phenyl)-N-(4-(1,1,1,3,3,3-hexafluoro-2-hydroxypropan-2-yl)-2-methylphenyl)acetamide]"
12,≤ 100,"CC(C)CCC(O)(c1ccc(NC(=O)Cc2ccc(S(=O)(=O)CC3CC3)cc2)cc1)C(F)(F)F (centres unmarked) [Example 104, 2-(4-((cyclopropylmethyl)sulfonyl)phenyl)-N-(4-(1,1,1-trifluoro-2-hydroxy-5-methylhexan-2-yl)phenyl)acetamide]"
13,≤ 100,"CC(O)(c1ccc(NC(=O)Cc2ccc(S(=O)(=O)CC3CC3)cc2)cc1)C(F)(F)F (centres unmarked) [Example 71, 2-(4-((cyclopropylmethyl)sulfonyl)phenyl)-N-(4-(1,1,1-trifluoro-2-hydroxypropan-2-yl)phenyl)acetamide]"
14,≤ 1000,"CCCC(O)(c1ccc(NC(=O)Cc2ccc(S(=O)(=O)NC3CC3)cc2)cc1)C(F)(F)F (centres unmarked) [Example 80, 2-(4-(N-cyclopropylsulfamoyl)phenyl)-N-(4-(1,1,1-trifluoro-2-hydroxypentan-2-yl)phenyl)acetamide]"
15,≤ 1000,"CCS(=O)(=O)c1ccc(CC(=O)Nc2ccc(C(O)(C(F)(F)F)C(F)(F)F)c(F)c2C)cc1 [Example 15, 2-(4-(ethylsulfonyl)phenyl)-N-(3-fluoro-4-(1,1,1,3,3,3-hexafluoro-2-hydroxypropan-2-yl)-2-methylphenyl)acetamide]"
16,≤ 100,"Cc1cc(C(O)(C(F)(F)F)C(F)(F)F)ccc1NC(=O)Cc1ccc(S(=O)(=O)CC2CC2)cc1 [Example 43, 2-(4-((cyclopropylmethyl)sulfonyl)phenyl)-N-(4-(1,1,1,3,3,3-hexafluoro-2-hydroxypropan-2-yl)-2-methylphenyl)acetamide]"

row,IC50 [nM],Structure (SMILES)
1,≤ 1000,"Cc1cc(NC(=O)Cc2cccc(S(=O)(=O)NC3CC3)c2)ccc1C(O)(C(F)(F)F)C(F)(F)F [Example 36, 2-(3-(N-cyclopropylsulfamoyl)phenyl)-N-(4-(1,1,1,3,3,3-hexafluoro-2-hydroxypropan-2-yl)-3-methylphenyl)acetamide]"
2,≤ 1000,"CCOC(c1ccc(NC(=O)Cc2ccc(S(=O)(=O)CC)cc2)cc1)(C(F)(F)F)C(F)(F)F [Example 48, N-(4-(2-ethoxy-1,1,1,3,3,3-hexafluoropropan-2-yl)phenyl)-2-(4-(ethylsulfonyl)phenyl)acetamide]"
3,≤ 1000,"O=C(Cc1cccc(S(=O)(=O)NC2CC2)c1)Nc1ccc(C(O)(C(F)(F)F)C(F)(F)F)cc1 [Example 12, 2-(3-(N-cyclopropylsulfamoyl)phenyl)-N-(4-(1,1,1,3,3,3-hexafluoro-2-hydroxypropan-2-yl)phenyl)acetamide]"
4,≤ 1000,"CCS(=O)(=O)c1ccc(CC(=O)Nc2ccc(C(O)(C(F)(F)F)C(F)(F)F)cc2)cc1F [Example 42, 2-(4-(ethylsulfonyl)-3-fluorophenyl)-N-(4-(1,1,1,3,3,3-hexafluoro-2-hydroxypropan-2-yl)phenyl)acetamide]"
5,≤ 1000,"CNS(=O)(=O)c1ccc(CC(=O)Nc2ccc(C(O)(C(F)(F)F)C(F)(F)F)cc2)cc1 [Example 6, N-(4-(1,1,1,3,3,3-hexafluoro-2-hydroxypropan-2-yl)phenyl)-2-(4-(N-methylsulfamoyl)phenyl)acetamide]"
6,≤ 10,"Cc1cc(NC(=O)Cc2ccc(S(=O)(=O)CC3CC3)cc2)ccc1C(O)(C(F)(F)F)C(F)(F)F [Example 44, 2-(4-((cyclopropylmethyl)sulfonyl)phenyl)-N-(4-(1,1,1,3,3,3-hexafluoro-2-hydroxypropan-2-yl)-3-methylphenyl)acetamide]"
7,≤ 1000,"O=C(Nc1ccc(C(O)(C(F)(F)F)C(F)(F)F)cc1)C(=O)c1ccc(S(=O)(=O)CC2CC2)cc1 [Example 102, 2-(4-((cyclopropylmethyl)sulfonyl)phenyl)-N-(4-(1,1,1,3,3,3-hexafluoro-2-hydroxypropan-2-yl)phenyl)-2-oxoacetamide]"
8,≤ 1000,"CCS(=O)(=O)c1ccc(CC(=O)Nc2ccc(C(O)(C(F)(F)F)C(F)(F)F)cc2F)cc1 [Example 28, 2-(4-(ethylsulfonyl)phenyl)-N-(2-fluoro-4-(1,1,1,3,3,3-hexafluoro-2-hydroxypropan-2-yl)phenyl)acetamide]"
9,≤ 10,"CCCOC(c1ccc(NC(=O)Cc2ccc(S(=O)(=O)CC3CC3)cc2)cc1)(C(F)(F)F)C(F)(F)F [Example 60, 2-(4-((cyclopropylmethyl)sulfonyl)phenyl)-N-(4-(1,1,1,3,3,3-hexafluoro-2-propoxypropan-2-yl)phenyl)acetamide]"
10,≤ 100,"O=C(Cc1ccc(S(=O)(=O)CC2CC2)cc1)Nc1ccc(C(O)(c2ccccc2)C(F)(F)F)cc1 (centres unmarked) [Example 88, 2-(4-((cyclopropylmethyl)sulfonyl)phenyl)-N-(4-(2,2,2-trifluoro-1-hydroxy-1-phenylethyl)phenyl)acetamide]"
11,≤ 100,"O=C(Cc1ccc(S(=O)(=O)CC2CC2)cc1)Nc1ccc(C(O)(C(F)(F)F)C(F)(F)F)cc1Cl [Example 98, N-(2-chloro-4-(1,1,1,3,3,3-hexafluoro-2-hydroxypropan-2-yl)phenyl)-2-(4-((cyclopropylmethyl)sulfonyl)phenyl)acetamide]"
12,≤ 100,"COc1cc(C(O)(C(F)(F)F)C(F)(F)F)ccc1NC(=O)Cc1ccc(S(=O)(=O)CC2CC2)cc1 [Example 55, 2-(4-((cyclopropylmethyl)sulfonyl)phenyl)-N-(4-(1,1,1,3,3,3-hexafluoro-2-hydroxypropan-2-yl)-2-methoxyphenyl)acetamide]"
13,≤ 10,"O=C(Cc1ccc(S(=O)(=O)CC2CC2)cc1)Nc1ccc(C(O)(C(F)(F)F)C(F)(F)F)cc1 [Example 37, 2-(4-((cyclopropylmethyl)sulfonyl)phenyl)-N-(4-(1,1,1,3,3,3-hexafluoro-2-hydroxypropan-2-yl)phenyl)acetamide]"
14,≤ 1000,"COc1cc(NC(=O)Cc2ccc(S(=O)(=O)CC3CC3)cc2)ccc1C(O)(C(F)(F)F)C(F)(F)F [Example 56, 2-(4-((cyclopropylmethyl)sulfonyl)phenyl)-N-(4-(1,1,1,3,3,3-hexafluoro-2-hydroxypropan-2-yl)-3-methoxyphenyl)acetamide]"
15,≤ 1000,"Cc1c(NC(=O)Cc2ccc(S(=O)(=O)NC3CC3)cc2)ccc(C(O)(C(F)(F)F)C(F)(F)F)c1F [Example 26, 2-(4-(N-cyclopropylsulfamoyl)phenyl)-N-(3-fluoro-4-(1,1,1,3,3,3-hexafluoro-2-hydroxypropan-2-yl)-2-methylphenyl)acetamide]"
16,≤ 100,"O=C(Cc1ccc(S(=O)(=O)CC2CC2)cc1)Nc1ccc(C(O)(Cc2ccccc2)C(F)(F)F)cc1 (centres unmarked) [Example 87, 2-(4-cyclopropylmethanesulfonylphenyl)-N-[4-(1,1,1-trifluoro-2-hydroxy-3-phenylpropan-2-yl)phenyl]acetamide]"
